Experimental data as given in patent EP0908457B1, “3-(1,2-benzisothiazol- and isoxazol-5-Y1)-2,4(1H,3H)-pyrimidinedione or thione and 3-(1,2-benzisothiazol- and isoxazol-5-y1)-4(3H)-pyrimidinone or thione herbicidal agents” (BASF AKTIENGESELLSCHAFT, priority 1997, dated 1999).

Key:
[1] = system: Sagittaria pygmaea, L.; assay: Postemergence weed control under flooded paddy conditions, SAGPY (Arrowhead (Pygmaea)); assay type: in vivo; settings: rated three to four weeks after treatment
[2] = system: Echinochloa oryzoides (Ard.) Fritsch.; assay: Preemergence weed control under flooded paddy conditions, ECHORC (Watergrass (Calif.)); assay type: in vivo; settings: preemergence, flooded paddy, rated 3-4 weeks after treatment; further: meaning of each grade not given here
[3] = system: Monochoria vaginalis, Presl.; assay: Preemergence weed control under flooded paddy conditions, MOOVA (Monochoria); assay type: in vivo; settings: preemergence, flooded paddy, rated 3-4 weeks after treatment; further: meaning of each grade not given here
[4] = system: Oryza sativa, (L.) Tebonnet; assay: Rice tolerance to post-transplant applications under flooded paddy conditions (Example 187), ORYSAT (Rice, Tebonnet); settings: rated 3-4 weeks after treatment; further: meaning of each grade not given here
[5] = system: Monochoria vaginalis, Presl.; assay: Postemergence weed control under flooded paddy conditions, MOOVA (Monochoria); assay type: in vivo; settings: rated three to four weeks after treatment
[6] = system: Oryza sativa, (L.) Tebonnet; assay: Rice tolerance to post-transplant applications under flooded paddy conditions (Example 188), ORYSAT (Rice, Tebonnet); settings: rated three to four weeks after treatment
[7] = system: Cyperus serotinus, Rottb.; assay: Preemergence weed control under flooded paddy conditions, CYPSE (Flatsedge); assay type: in vivo; settings: preemergence, rated 3-4 weeks after treatment; further: meaning of each grade not given here
[8] = system: Cyperus serotinus, Rottb.; assay: Postemergence weed control under flooded paddy conditions, CYPSE (Flatsedge); assay type: in vivo; settings: rated three to four weeks after treatment
[9] = system: Echinochloa oryzoides (Ard.) Fritsch.; assay: Postemergence weed control under flooded paddy conditions, ECHORC (Watergrass (Calif.)); assay type: in vivo; settings: rated three to four weeks after treatment
[10] = system: Cyperus iria; assay: Preemergence weed control under flooded paddy conditions, CYPIR (Rice Flatsedge); assay type: in vivo; settings: preemergence, flooded paddy, rated 3-4 weeks after treatment; further: meaning of each grade not given here
[11] = system: Cyperus iria; assay: Postemergence weed control under flooded paddy conditions, CYPIR (Rice Flatsedge); assay type: in vivo; settings: rated three to four weeks after treatment
[12] = system: Sagittaria pygmaea, L.; assay: Preemergence weed control under flooded paddy conditions, SAGPY (Arrowhead (Pygmaea)); assay type: in vivo; settings: preemergence, flooded paddy, rated 3-4 weeks after treatment; further: meaning of each grade not given here

## C#CCOC(=O)C(C)(C)Oc1ccc(C)cc1-c1nsc2ccc(-n3c(=O)cc(C(F)(F)F)n(C)c3=O)cc12 [Example 528, Propionic acid, 2-{{2-{5-[3,6-dihydro-3-methyl-2,6-dioxo-4-(trifluoromethyl)-1(2H)-pyrimidinyl]-1,2-benzisothiazol-3-yl}-p-tolyl}oxy}-2-methyl-, 2-propynyl ester]
[1]; Rate 0.0320 kg/ha
  herbicidal effect rating, SAGPY: 0.0
[1]; Rate 0.0620 kg/ha
  herbicidal effect rating, SAGPY: 0.0
[1]; Rate 0.1250 kg/ha
  herbicidal effect rating, SAGPY: 0.0
[1]; Rate 0.2500 kg/ha
  herbicidal effect rating, SAGPY: 3.0
[2]; Rate 0.0320 kg/ha
  herbicidal effect rating, ECHORC: 9.0
[2]; Rate 0.0620 kg/ha
  herbicidal effect rating, ECHORC: 9.0
[2]; Rate 0.1250 kg/ha
  herbicidal effect rating, ECHORC: 9.0
[2]; Rate 0.2500 kg/ha
  herbicidal effect rating, ECHORC: 9.0
[3]; Rate 0.0320 kg/ha
  herbicidal effect rating, MOOVA: 9.0
[3]; Rate 0.0620 kg/ha
  herbicidal effect rating, MOOVA: 9.0
[3]; Rate 0.1250 kg/ha
  herbicidal effect rating, MOOVA: 9.0
[3]; Rate 0.2500 kg/ha
  herbicidal effect rating, MOOVA: 9.0
[4]; Rate 0.0320 kg/ha
  herbicidal effect rating ORYSAT: 1.5
[4]; Rate 0.0620 kg/ha
  herbicidal effect rating ORYSAT: 3.5
[4]; Rate 0.1250 kg/ha
  herbicidal effect rating ORYSAT: 7.0
[4]; Rate 0.2500 kg/ha
  herbicidal effect rating ORYSAT: 9.0
[5]; Rate 0.0320 kg/ha
  herbicidal effect rating, MOOVA: 0.0
[5]; Rate 0.0620 kg/ha
  herbicidal effect rating, MOOVA: 0.0
[5]; Rate 0.1250 kg/ha
  herbicidal effect rating, MOOVA: 9.0
[5]; Rate 0.2500 kg/ha
  herbicidal effect rating, MOOVA: 9.0
[6]; Rate 0.0320 kg/ha
  herbicidal effect rating, ORYSAT (rice tolerance): 0.0
[6]; Rate 0.0620 kg/ha
  herbicidal effect rating, ORYSAT (rice tolerance): 0.0
[6]; Rate 0.1250 kg/ha
  herbicidal effect rating, ORYSAT (rice tolerance): 2.0
[6]; Rate 0.2500 kg/ha
  herbicidal effect rating, ORYSAT (rice tolerance): 3.0
[7]; Rate 0.0320 kg/ha
  herbicidal effect rating, CYPSE: 0.0
[7]; Rate 0.0620 kg/ha
  herbicidal effect rating, CYPSE: 0.0
[7]; Rate 0.1250 kg/ha
  herbicidal effect rating, CYPSE: 0.0
[7]; Rate 0.2500 kg/ha
  herbicidal effect rating, CYPSE: 0.0
[8]; Rate 0.0320 kg/ha
  herbicidal effect rating, CYPSE: 0.0
[8]; Rate 0.0620 kg/ha
  herbicidal effect rating, CYPSE: 0.0
[8]; Rate 0.1250 kg/ha
  herbicidal effect rating, CYPSE: 0.0
[8]; Rate 0.2500 kg/ha
  herbicidal effect rating, CYPSE: 9.0
[9]; Rate 0.0320 kg/ha
  herbicidal effect rating, ECHORC: 0.0
[9]; Rate 0.0620 kg/ha
  herbicidal effect rating, ECHORC: 7.0
[9]; Rate 0.1250 kg/ha
  herbicidal effect rating, ECHORC: 9.0
[9]; Rate 0.2500 kg/ha
  herbicidal effect rating, ECHORC: 9.0
[10]; Rate 0.0320 kg/ha
  herbicidal effect rating, CYPIR: 4.5
[10]; Rate 0.0620 kg/ha
  herbicidal effect rating, CYPIR: 5.0
[10]; Rate 0.1250 kg/ha
  herbicidal effect rating, CYPIR: 5.0
[10]; Rate 0.2500 kg/ha
  herbicidal effect rating, CYPIR: 9.0
[11]; Rate 0.0320 kg/ha
  herbicidal effect rating, CYPIR: 6.0
[11]; Rate 0.0620 kg/ha
  herbicidal effect rating, CYPIR: 6.0
[11]; Rate 0.1250 kg/ha
  herbicidal effect rating, CYPIR: 6.0
[11]; Rate 0.2500 kg/ha
  herbicidal effect rating, CYPIR: 6.0
[12]; Rate 0.0320 kg/ha
  herbicidal effect rating, SAGPY: 1.0
[12]; Rate 0.0620 kg/ha
  herbicidal effect rating, SAGPY: 0.0
[12]; Rate 0.1250 kg/ha
  herbicidal effect rating, SAGPY: 1.5
[12]; Rate 0.2500 kg/ha
  herbicidal effect rating, SAGPY: 3.0
